From US12612410B2 (CHILDREN'S HOSPITAL MEDICAL CENTER, priority 2020, dated 2026)

Tests used:
Format in all cases: biochemical
Settings in all cases: isolated kinase, 33P-ATP
IRAK1 = target: T1, IRAK1 (Homo sapiens, UniProt P51617); experiment: RBC HotSpot Kinase Assay, IRAK1
T1 construct: purchased Reaction Biology (RBC), HotSpot kinase assay
Text: (§1) This assay uses the isolated kinase enzyme. This assay is very useful for determining competition of the inhibitor for ATP and/or substrates and for measuring the kinetics of enzyme inhibition. […] Unlike kinase binding assays that measure competition for ATP, the HotSpot Kinase Assay is a functional assay that measures catalytic activity; as such it measures relative functional potency regardless of the mechanism of enzyme inhibition. This assay uses the form of the various enzymes that are easiest to express, which may not necessarily be the form of the enzyme that exist in the cell. (Sometimes the carboxy terminus has been truncated to aid in expression, or, if it is a receptor kinase, the enzyme itself is isolated from the other parts of the receptor that are involved in regulating kinase activity.)
(§2) The reagent used was as follows: Base Reaction buffer; 20 mM Hepes (pH 7.5), 10 mM MgCl2, 1 mM EGTA, 0.01% Brij35, 0.02 mg/ml BSA, 0.1 mM Na3VO4, 2 mM DTT, 1% DMSO. Required cofactors were added individually to each kinase reaction.
(§3) The reaction procedure was as follows: • 1) Substrates were prepared in freshly prepared Reaction Buffer. • 2) Any required cofactors were delivered to the substrate solution above. • 3) Kinase was delivered into the substrate solution and gently mixed. • 4) Compounds were delivered in 100% DMSO into the kinase reaction mixture by Acoustic technology (Echo550; nanoliter range), followed by incubation for 20 min at room temp. • 5)^33P-ATP was delivered into the reaction mixture to initiate the reaction. • 6) The mixture was incubated for 2 hours at room temperature. • 7) Kinase activity was detected by P81 filter-binding method.

IRAK4 = target: T2, IRAK4 (Homo sapiens, UniProt Q9NWZ3); experiment: RBC HotSpot Kinase Assay, IRAK4; parameters: purchased Reaction Biology (RBC), HotSpot kinase assay
T2 sequence (Q9NWZ3 1-460): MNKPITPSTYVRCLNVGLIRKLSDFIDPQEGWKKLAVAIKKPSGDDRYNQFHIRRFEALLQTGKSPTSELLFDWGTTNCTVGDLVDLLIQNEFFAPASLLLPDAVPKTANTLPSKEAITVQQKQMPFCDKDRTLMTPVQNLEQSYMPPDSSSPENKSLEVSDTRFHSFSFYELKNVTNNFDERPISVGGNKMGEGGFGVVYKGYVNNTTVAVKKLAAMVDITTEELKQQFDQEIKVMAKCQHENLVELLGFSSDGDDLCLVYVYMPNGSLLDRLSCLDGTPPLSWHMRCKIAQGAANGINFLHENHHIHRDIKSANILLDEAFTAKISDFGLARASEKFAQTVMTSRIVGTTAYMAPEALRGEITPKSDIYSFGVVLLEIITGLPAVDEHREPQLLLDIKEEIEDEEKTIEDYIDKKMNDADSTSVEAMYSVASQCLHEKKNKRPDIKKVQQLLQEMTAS
Text: as §1, §2, §3

FLT3 = target: T3, FLT3 (Homo sapiens, UniProt P36888); experiment: RBC HotSpot Kinase Assay, FLT3; parameters: purchased Reaction Biology (RBC), HotSpot kinase assay
T3 sequence (P36888 27-993): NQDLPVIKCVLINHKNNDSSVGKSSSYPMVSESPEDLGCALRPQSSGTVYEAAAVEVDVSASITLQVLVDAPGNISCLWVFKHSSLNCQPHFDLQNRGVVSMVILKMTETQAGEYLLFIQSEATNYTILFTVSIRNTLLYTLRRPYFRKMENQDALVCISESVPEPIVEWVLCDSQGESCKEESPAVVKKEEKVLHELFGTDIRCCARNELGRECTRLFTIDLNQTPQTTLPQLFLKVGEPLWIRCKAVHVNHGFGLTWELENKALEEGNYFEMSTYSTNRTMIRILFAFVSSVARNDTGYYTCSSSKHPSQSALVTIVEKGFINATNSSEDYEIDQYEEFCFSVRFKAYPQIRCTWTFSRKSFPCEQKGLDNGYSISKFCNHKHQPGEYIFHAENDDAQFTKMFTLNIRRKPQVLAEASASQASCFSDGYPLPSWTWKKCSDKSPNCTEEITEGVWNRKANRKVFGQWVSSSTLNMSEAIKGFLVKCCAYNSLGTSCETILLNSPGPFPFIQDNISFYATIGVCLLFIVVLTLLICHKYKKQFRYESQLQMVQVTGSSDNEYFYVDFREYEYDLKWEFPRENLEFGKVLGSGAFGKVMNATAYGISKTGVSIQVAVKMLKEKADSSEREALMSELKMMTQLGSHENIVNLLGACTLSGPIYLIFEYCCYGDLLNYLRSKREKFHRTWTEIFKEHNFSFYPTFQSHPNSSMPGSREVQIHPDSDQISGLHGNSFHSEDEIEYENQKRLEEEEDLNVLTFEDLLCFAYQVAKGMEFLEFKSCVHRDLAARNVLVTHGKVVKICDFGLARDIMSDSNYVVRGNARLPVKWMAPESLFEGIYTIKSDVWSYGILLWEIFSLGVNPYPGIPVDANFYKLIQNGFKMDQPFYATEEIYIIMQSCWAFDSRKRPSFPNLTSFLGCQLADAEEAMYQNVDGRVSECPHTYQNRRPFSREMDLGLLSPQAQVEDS
Text: as §1, §2, §3

T1 sequence (P51617 whole entry): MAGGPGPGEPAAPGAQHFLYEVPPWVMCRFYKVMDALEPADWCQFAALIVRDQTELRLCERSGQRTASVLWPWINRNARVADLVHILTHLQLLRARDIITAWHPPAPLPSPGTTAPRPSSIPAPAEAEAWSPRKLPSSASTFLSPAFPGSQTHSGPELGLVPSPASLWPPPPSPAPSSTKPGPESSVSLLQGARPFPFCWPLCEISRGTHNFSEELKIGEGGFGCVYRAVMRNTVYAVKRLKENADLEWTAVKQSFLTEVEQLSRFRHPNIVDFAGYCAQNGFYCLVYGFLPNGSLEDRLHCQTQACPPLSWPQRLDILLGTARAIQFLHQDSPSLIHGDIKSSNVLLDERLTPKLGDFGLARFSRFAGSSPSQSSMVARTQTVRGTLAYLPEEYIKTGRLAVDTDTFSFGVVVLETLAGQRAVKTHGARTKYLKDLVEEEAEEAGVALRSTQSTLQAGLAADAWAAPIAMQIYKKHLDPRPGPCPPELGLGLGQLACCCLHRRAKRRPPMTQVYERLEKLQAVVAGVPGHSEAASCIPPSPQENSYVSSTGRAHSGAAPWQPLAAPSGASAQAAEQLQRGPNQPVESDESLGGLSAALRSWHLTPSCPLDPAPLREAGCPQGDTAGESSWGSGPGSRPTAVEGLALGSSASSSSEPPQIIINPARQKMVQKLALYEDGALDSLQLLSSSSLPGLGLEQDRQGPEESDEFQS

| IC50 (IRAK1) [nM] | IC50 (IRAK4) [nM] | IC50 (FLT3) [nM] | Compound |
| --- | --- | --- | --- |
| 451 | 2 | 0.9 | CC1(c2cn3c(-c4cccc(N[C@H]5CNC[C@@H]5C(F)(F)F)n4)cnc3cn2)CC1 [Compound 4, 6-(6-(1-methylcyclopropyl)imidazo[1,2-a]pyrazin-3-yl)-N-((3R,4S)-4-(trifluoromethyl)pyrrolidin-3-yl)pyridin-2-amine] |
| 926 | 86 | 0.6 | CC1(c2cn3c(-c4cccc(N[C@H]5CCNC[C@@H]5F)n4)cnc3cn2)CC1 [Compound 6, N-((3S,4S)-3-fluoropiperidin-4-yl)-6-(6-(1-methylcyclopropyl)imidazo[1,2-a]pyrazin-3-yl)pyridin-2-amine] |
| 3280 | 1020 | 1 | C[C@H]1C[C@@H](Nc2cccc(-c3cnc4cnc(C5(C)CC5)cn34)n2)CCN1 [Compound 7, 6-(6-(1-methylcyclopropyl)imidazo[1,2-a]pyrazin-3-yl)-N-((2S,4S)-2-methylpiperidin-4-yl)pyridin-2-amine] |
| 736 | 1020 | 3 | C[C@@H]1CNC[C@H](Nc2cccc(-c3cnc4cnc(C5(C(F)(F)F)CC5)cn34)n2)C1 [Compound 15, N-((3R,5S)-5-methylpiperidin-3-yl)-6-(6-(1-(trifluoromethyl)cyclopropyl)imidazo[1,2-a]pyrazin-3-yl)pyridin-2-amine] |
| 150 | 2 | < 0.5 | FC(F)c1cn2c(-c3cccc(N[C@H]4CNCC45CC5)n3)cnc2cn1 [Compound 20, (R)-N-(6-(6-(difluoromethyl)imidazo[1,2-a]pyrazin-3-yl)pyridin-2-yl)-5-azaspiro[2.4]heptan-7-amine] |
| 474 | 669 | 1 | C[C@H]1C[C@@H](Nc2cccc(-c3cnc4cnc(C(F)F)cn34)n2)CCN1 [Compound 22, 6-(6-(difluoromethyl)imidazo[1,2-a]pyrazin-3-yl)-N-((2S,4S)-2-methylpiperidin-4-yl)pyridin-2-amine] |
| 185 | 7 | < 0.5 | FC(F)c1cn2c(-c3cccc(N[C@H]4CNCC4(F)F)n3)cnc2cn1 [Compound 23, 6-(6-(difluoromethyl)imidazo[1,2-a]pyrazin-3-yl)-N-(4,4-difluoropyrrolidin-3-yl)pyridin-2-amine] |
| 236 | 2 | < 0.5 | CC1(C)CCNCC1Nc1cccc(-c2cnc3cnc(C(F)F)cn23)n1 (stereo not drawn) [Compound 24, 6-(6-(difluoromethyl)imidazo[1,2-a]pyrazin-3-yl)-N-(4,4-dimethylpiperidin-3-yl)pyridin-2-amine] |
| 103 | 0.7 | < 0.5 | FC(F)c1cn2c(-c3cccc(N[C@H]4CNCCC4(F)F)n3)cnc2cn1 [Compound 26, (S)-6-(6-(difluoromethyl)imidazo[1,2-a]pyrazin-3-yl)-N-(4,4-difluoropiperidin-3-yl)pyridin-2-amine] |
| 116 | 0.9 | 0.8 | CC(C)(O)c1cn2c(-c3cccc(N[C@@H]4CCNC4)n3)cnc2cn1 [Compound 27, (R)-2-(3-(6-(pyrrolidin-3-ylamino)pyridin-2-yl)imidazo[1,2-a]pyrazin-6-yl)propan-2-ol] |
| 385 | 3 | < 0.5 | CC(C)(O)c1cn2c(-c3cccc(N[C@H]4CNC[C@@H](F)C4)n3)cnc2cn1 [Compound 32, 2-(3-(6-(((3R,5S)-5-fluoropiperidin-3-yl)amino)pyridin-2-yl)imidazo[1,2-a]pyrazin-6-yl)propan-2-ol] |
| 273 | 11 | < 0.5 | FC(F)(F)COc1cn2c(-c3cccc(N[C@@H]4CCCNC4)n3)cnc2cn1 [Compound 37, (R)-N-(piperidin-3-yl)-6-(6-(2,2,2-trifluoroethoxy)imidazo[1,2-a]pyrazin-3-yl)pyridin-2-amine] |
| 301 | 8 | < 0.5 | FC(F)(F)COc1cn2c(-c3cccc(N[C@H]4CNC[C@@H]4C(F)(F)F)n3)cnc2cn1 [Compound 39, 6-(6-(2,2,2-trifluoroethoxy)imidazo[1,2-a]pyrazin-3-yl)-N-((3R,4S)-4-(trifluoromethyl)pyrrolidin-3-yl)pyridin-2-amine] |
| 142 | 110 | < 0.5 | F[C@H]1CNCC[C@@H]1Nc1cccc(-c2cnc3cnc(OCC(F)(F)F)cn23)n1 [Compound 41, N-((3S,4S)-3-fluoropiperidin-4-yl)-6-(6-(2,2,2-trifluoroethoxy)imidazo[1,2-a]pyrazin-3-yl)pyridin-2-amine] |
| 413 | 339 | 0.6 | C[C@H]1C[C@@H](Nc2cccc(-c3cnc4cnc(OCC(F)(F)F)cn34)n2)CCN1 [Compound 42, N-((2S,4S)-2-methylpiperidin-4-yl)-6-(6-(2,2,2-trifluoroethoxy)imidazo[1,2-a]pyrazin-3-yl)pyridin-2-amine] |
| 4280 | 37 | < 0.5 | FC(F)n1cc(-c2cn3c(-c4cccc(N[C@@H]5CCCNC5)n4)cnc3cn2)cn1 [Compound 44, (R)-6-(6-(1-(difluoromethyl)-1H-pyrazol-4-yl)imidazo[1,2-a]pyrazin-3-yl)-N-(piperidin-3-yl)pyridin-2-amine] |
| 1990 | 12 | < 0.5 | c1cc(N[C@@H]2CCCNC2)nc(-c2cnc3cnc(-c4cnn(C5CC5)c4)cn23)c1 [Compound 45, (R)-6-(6-(1-cyclopropyl-1H-pyrazol-4-yl)imidazo[1,2-a]pyrazin-3-yl)-N-(piperidin-3-yl)pyridin-2-amine] |
| 3640 | 8 | < 0.5 | CC(C)(O)Cn1cc(-c2cn3c(-c4cccc(N[C@@H]5CCCNC5)n4)cnc3cn2)cn1 [Compound 46, (R)-2-methyl-1-(4-(3-(6-(piperidin-3-ylamino)pyridin-2-yl)imidazo[1,2-a]pyrazin-6-yl)-1H-pyrazol-1-yl)propan-2-ol] |
| 154 | 7 | < 0.5 | c1cc(N[C@@H]2CCCNC2)nc(-c2cnc3cnc(-c4cnn5ccccc45)cn23)c1 [Compound 47] |
| 1250 | 12 | 0.6 | FC(F)n1cc(-c2cn3c(-c4cccc(N[C@H]5CNC[C@@H]5F)n4)cnc3cn2)cn1 [Compound 53, 6-(6-(1-(difluoromethyl)-1H-pyrazol-4-yl)imidazo[1,2-a]pyrazin-3-yl)-N-((3S,4S)-4-fluoropyrrolidin-3-yl)pyridin-2-amine] |
